Data reported in patent US20250091983A1, “CYCLOPENTANE AND CYCLOHEXANE VARIANTS OF 6-PHENYLHEXANAMIDE MITOFUSIN ACTIVATORS AND METHODS FOR USE THEREOF” (MITOCHONDRIA EMOTION, INC., priority 2021, published 2025).

Columns and labels:
[1] = Liver microsome stability, mouse; format: in vitro ADME; settings: 1 uM compound, mouse liver microsomes 0.5 mg/ml; read-out: Liver Microsomes (t1/2, minutes) Mouse
Protocol: (§1) In vitro pharmacokinetic analyses were performed in duplicate using standard methods by WuXi AppTec Co. Ltd. (Shanghai, China). Plasma protein binding was measured by equilibrium dialysis; % bound=(1−[free compound in dialysate]/[total compound in retentate])×100. […] Liver microsome stability of 1 uM compounds in liver microsomes (0.5 mg/ml) after 0, 5, 10, 20, 30, 60 min. incubation was assessed by LC/MS/MS of reaction extracts.

[2] = system: mitofusin; experiment: Dose-response of mitofusin agonist fusogenicity (mitochondrial aspect ratio); format: cell-based, mouse; settings: Mfn1-KO or Mfn2-KO MEFs; mitochondrial aspect ratio indexed to maximal response of Compound 22; overnight
Protocol: Wild-type MEFs were prepared from E10.5 c57/bl6 mouse embryos. SV-40 T antigen-immortalized MFN1 null (CRL-2992), MFN2 null (CRL-2993) and MFN1/MFN2 double null MEFs (CRL-2994) were purchased from ATCC.
Mitochondria were then stained with MitoTracker Orange (200 nM; M7510; Invitrogen, Carlsbad, CA, USA). Nuclei were stained with Hoescht ([…]; Invitrogen, Thermo Fisher Scientific Cat: #1-3570). […] Response curves were interpolated using the sigmoidal model using Prism 8 software.

[3] = Liver microsome stability, human; format: in vitro ADME; settings: 1 uM compound, human liver microsomes 0.5 mg/ml; read-out: Liver Microsomes (t1/2, minutes) Human
Protocol: as §1

[4] = Plasma protein binding by equilibrium dialysis, human; format: in vitro ADME; settings: read-out: Plasma Protein Binding (Bound %) Human (converted)
Protocol: as §1

[5] = Plasma protein binding by equilibrium dialysis, mouse; format: in vitro ADME; settings: read-out: Plasma Protein Binding (Bound %) Mouse (converted)
Protocol: as §1

Row | SMILES | half-life at 1 uM [1] | EC50 [2] | half-life at 1 uM [3] | fraction unbound [4] | fraction unbound [5]
1 | O=C(CCCCCc1ccccc1)NC1CCOCC1 [23 (Comp.)] | 112 min | 0.0063 µM | 23.7 min |  | 
2 | O=C(N[C@H]1CC[C@H](O)CC1)C1CCC(CCCc2ccccc2)C1 (stereo partly drawn) [15 (Exp.), N-(4-hydroxycyclohexyl)-3-(3-phenylpropyl)cyclopentane-1-carboxamide] |  | 0.0153 µM |  | 0.007 | 0.012
